target: T1, human insulin receptor (IR) (Homo sapiens, UniProt P06213); assay: Binding affinity to the human insulin receptor relative to human insulin (SPA antibody capture assay); details: binding affinity to the human insulin receptor relative to that of human insulin
Experimental: The PEGylated single-chain insulins were tested for biological insulin activity as measured by binding affinity to the human insulin receptor (IR) relative to that of human insulin as described below.
Target sequence in this assay (P06213 28-746 isoform P06213-2 limits assumed): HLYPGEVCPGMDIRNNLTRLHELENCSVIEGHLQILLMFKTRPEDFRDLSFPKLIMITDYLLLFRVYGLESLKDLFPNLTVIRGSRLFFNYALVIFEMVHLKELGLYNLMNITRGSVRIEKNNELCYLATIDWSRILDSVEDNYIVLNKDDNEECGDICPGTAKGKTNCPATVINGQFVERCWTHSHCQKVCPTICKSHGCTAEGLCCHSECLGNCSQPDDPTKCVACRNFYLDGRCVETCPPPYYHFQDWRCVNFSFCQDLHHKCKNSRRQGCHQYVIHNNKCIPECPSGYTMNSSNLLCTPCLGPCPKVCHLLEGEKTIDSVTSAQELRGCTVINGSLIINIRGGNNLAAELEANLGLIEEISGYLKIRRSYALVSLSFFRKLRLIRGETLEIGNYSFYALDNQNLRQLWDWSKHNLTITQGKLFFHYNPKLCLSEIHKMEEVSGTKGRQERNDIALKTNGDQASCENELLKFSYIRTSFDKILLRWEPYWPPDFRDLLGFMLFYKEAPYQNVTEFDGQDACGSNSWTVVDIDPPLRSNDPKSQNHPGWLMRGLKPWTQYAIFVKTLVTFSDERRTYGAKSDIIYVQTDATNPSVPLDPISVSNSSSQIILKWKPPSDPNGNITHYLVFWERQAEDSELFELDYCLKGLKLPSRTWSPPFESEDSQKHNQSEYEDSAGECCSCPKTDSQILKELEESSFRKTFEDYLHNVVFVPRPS
Target sequence in this assay (P06213 763-1382 partner limits assumed): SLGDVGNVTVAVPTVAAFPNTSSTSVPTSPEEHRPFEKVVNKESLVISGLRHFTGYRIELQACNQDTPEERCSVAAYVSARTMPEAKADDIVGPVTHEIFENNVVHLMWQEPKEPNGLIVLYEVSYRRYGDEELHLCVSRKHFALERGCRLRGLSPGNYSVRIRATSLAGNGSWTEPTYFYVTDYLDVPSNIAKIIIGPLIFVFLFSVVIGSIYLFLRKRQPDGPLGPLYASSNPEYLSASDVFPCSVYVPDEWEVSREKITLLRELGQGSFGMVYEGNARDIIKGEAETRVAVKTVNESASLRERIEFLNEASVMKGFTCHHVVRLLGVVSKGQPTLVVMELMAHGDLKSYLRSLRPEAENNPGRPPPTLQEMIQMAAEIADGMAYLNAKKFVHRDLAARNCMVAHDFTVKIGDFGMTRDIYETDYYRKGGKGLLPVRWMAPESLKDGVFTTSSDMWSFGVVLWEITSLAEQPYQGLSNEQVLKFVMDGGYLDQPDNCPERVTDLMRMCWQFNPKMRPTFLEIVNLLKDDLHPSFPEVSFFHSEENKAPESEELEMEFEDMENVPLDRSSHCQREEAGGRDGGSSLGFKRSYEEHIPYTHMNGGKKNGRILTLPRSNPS
Insulin receptor binding of the PEGylated single-chain insulins of the invention.
The affinity of the PEGylated, single-chain insulins the invention for the human insulin receptor is determined by a SPA assay (Scintillation Proximity Assay) microtiterplate antibody capture assay. SPA-PVT antibody-binding beads, anti-mouse reagent (Amersham Biosciences, Cat No. PRNQ0017) are mixed with 25 ml of binding buffer (100 mM HEPES pH 7.8; 100 mM sodium chloride, 10 mM MgSO4, 0.025% Tween-20). Reagent mix for a single Packard Optiplate (Packard No. 6005190) is composed of 2.4 μl of a 1:5000 diluted purified recombinant human insulin receptor—exon 11, an amount of a stock solution of A14 Tyr[125I]-human insulin corresponding to 5000 cpm per 100 μl of reagent mix, 12 μl of a 1:1000 dilution of F12 antibody, 3 ml of SPA-beads and binding buffer to a total of 12 ml. A total of 100 μl is then added and a dilution series is made from appropriate samples. To the dilution series is then added 100 μl of reagent mix and the samples were incubated for 16 hours while gently shaken. The phases are then separated by centrifugation for 1 min and the plates counted in a Topcounter. The binding data are fitted using the nonlinear regression algorithm in the GraphPad Prism 2.01 (GraphPad Software, San Diego, Calif.).

| Substance | IR binding in percent of human insulin [%] |
| --- | --- |
| B(1-29)-B29K(N^ε-3-(mPEG2000-yl-propionyl)-VGLSSGQ-A(1-21)-A18Q Human Insulin [Example 3] | 5.3 |
| B(1-29)-B3Q-B29R-TGLGK(N^ε-3-(mPEG2000-yl)propionyl)GQ-A(1-21)-A18Q-A21G Human Insulin [Example 1] | 6.8 |
| B(1-29)-B29A-VK(N^ε-3-(mPEG2000-yl)propionyl)LSSGQ-A(1-21)-A18Q Human Insulin [Example 5] | 3.2 |
| B(1-29)-B22K(N^ε-3-(mPEG2000-yl)propionyl)-B29A-A18Q-VGLSSGQ-A(1-21) Human Insulin [Example 2] | 19.7 |
| B(1-29)-B1(N^α-3-(mPEG2000-yl)propionyl)-B29A-VGLSSGQ-A(1-21)-A18Q Human Insulin [Example 8] | 8.1 |
| B(1-29)-B29A-VGLSSGQ-A(1-21)-A8K(N^ε-3-(mPEG2000-yl)propionyl)-A18Q Human Insulin [Example 4] | 4.6 |
| B(1-29)-B3K(N^ε-3-(mPEG2000-yl)propionyl)-B29A-VGLSSGQ-A(1-21)-A18Q Human Insulin [Example 7] | 4.5 |
| B(1-29)-B29A-VGLSSGQ-A(1-22)-A18Q-A22K(N^ε-3-(mPEG2000-yl)propionyl) Human Insulin [Example 6] | 12 |

target: T1, human insulin receptor (IR); assay: displacement of 125I-human insulin from human insulin receptor; affinity relative to human insulin; details: not given
Target sequence in this assay (P06213 other isoform, or with tags, fused parts or gaps limits assumed, form in doubt): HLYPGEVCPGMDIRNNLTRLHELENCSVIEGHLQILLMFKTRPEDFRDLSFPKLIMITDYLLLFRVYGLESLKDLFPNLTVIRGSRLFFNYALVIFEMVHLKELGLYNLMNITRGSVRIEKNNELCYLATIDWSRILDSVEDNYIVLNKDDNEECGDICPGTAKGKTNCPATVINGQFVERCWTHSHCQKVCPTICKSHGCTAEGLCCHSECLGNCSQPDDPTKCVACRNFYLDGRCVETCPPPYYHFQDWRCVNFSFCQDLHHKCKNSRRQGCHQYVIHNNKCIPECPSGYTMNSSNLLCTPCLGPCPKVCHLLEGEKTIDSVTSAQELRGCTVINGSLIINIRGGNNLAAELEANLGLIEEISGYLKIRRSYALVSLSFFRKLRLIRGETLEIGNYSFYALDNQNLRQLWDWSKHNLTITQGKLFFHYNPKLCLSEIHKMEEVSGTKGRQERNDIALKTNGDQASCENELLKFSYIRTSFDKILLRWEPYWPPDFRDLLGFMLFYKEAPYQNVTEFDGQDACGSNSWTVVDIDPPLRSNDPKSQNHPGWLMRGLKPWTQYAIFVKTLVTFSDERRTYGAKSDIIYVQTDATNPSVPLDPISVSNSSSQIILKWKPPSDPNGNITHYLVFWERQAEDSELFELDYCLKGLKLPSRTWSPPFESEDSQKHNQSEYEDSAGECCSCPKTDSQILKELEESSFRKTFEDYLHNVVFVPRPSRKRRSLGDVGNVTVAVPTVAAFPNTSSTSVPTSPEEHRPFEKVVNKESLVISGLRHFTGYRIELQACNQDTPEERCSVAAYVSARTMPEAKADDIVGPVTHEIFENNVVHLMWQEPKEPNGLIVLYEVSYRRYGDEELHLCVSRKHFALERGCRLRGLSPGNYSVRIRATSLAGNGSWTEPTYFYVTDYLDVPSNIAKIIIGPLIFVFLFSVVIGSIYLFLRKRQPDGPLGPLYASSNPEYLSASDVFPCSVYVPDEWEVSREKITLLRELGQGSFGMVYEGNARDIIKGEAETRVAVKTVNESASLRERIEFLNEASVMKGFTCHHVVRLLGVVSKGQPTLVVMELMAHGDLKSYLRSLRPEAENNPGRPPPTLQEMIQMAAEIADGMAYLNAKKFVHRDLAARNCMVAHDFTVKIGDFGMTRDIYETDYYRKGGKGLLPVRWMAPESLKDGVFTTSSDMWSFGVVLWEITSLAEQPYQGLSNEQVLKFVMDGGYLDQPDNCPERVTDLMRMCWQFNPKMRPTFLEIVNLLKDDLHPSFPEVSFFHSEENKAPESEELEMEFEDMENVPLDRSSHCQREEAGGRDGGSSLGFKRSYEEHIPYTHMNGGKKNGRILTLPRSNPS

| Substance | IR binding in percent of human insulin [%] |
| --- | --- |
| B(1-29)-B29A-VGLSSGQ-A(1-21)-A8K(N^ε-3-(mPEG2000-yl)propionyl)-A18Q Human Insulin (from UniProt P01308 25-53; P01308 90-110) (ligand) | 4.6 |
| B(1-29)-B29A-VK(N^ε-3-(mPEG2000-yl)propionyl)LSSGQ-A(1-21)-A18Q Human Insulin (from UniProt P01308 25-53; P01308 90-110) (ligand) | 3.2 |
| B(1-29)-B29A-VGLSSGQ-A(1-22)-A18Q-A22K(N^ε-3-(mPEG2000-yl)propionyl) Human Insulin (from UniProt P01308 25-53; P01308 90-110) (ligand) | 12 |
| B(1-29)-B3K(N^ε-3-(mPEG2000-yl)propionyl)-B29A-VGLSSGQ-A(1-21)-A18Q Human Insulin (from UniProt P01308 25-53; P01308 90-110) (ligand) | 4.5 |
| B(1-29)-B29K(N^ε-3-(mPEG2000-yl-propionyl)-VGLSSGQ-A(1-21)-A18Q Human Insulin (from UniProt P01308 25-53; P01308 90-110) (ligand) | 5.3 |
| B(1-29)-B3Q-B29R-TGLGK(N^ε-3-(mPEG2000-yl)propionyl)GQ-A(1-21)-A18Q-A21G Human Insulin (from UniProt P01308 25-53; P01308 90-110) (ligand) | 6.8 |
| B(1-29)-B22K(N^ε-3-(mPEG2000-yl)propionyl)-B29A-A18Q-VGLSSGQ-A(1-21) Human Insulin (from UniProt P01308 25-53; P01308 90-110) (ligand) | 19.7 |
| B(1-29)-B1(N^α-3-(mPEG2000-yl)propionyl)-B29A-VGLSSGQ-A(1-21)-A18Q Human Insulin (from UniProt P01308 25-53; P01308 90-110) (ligand) | 8.1 |
